{
  "source": "paper PMC3627854",
  "about": "(Osteoporosis International, 2012)",
  "target": "T1, IKKα (Mus musculus, UniProt Q60680)",
  "T1 sequence (Q60680 1-745)": "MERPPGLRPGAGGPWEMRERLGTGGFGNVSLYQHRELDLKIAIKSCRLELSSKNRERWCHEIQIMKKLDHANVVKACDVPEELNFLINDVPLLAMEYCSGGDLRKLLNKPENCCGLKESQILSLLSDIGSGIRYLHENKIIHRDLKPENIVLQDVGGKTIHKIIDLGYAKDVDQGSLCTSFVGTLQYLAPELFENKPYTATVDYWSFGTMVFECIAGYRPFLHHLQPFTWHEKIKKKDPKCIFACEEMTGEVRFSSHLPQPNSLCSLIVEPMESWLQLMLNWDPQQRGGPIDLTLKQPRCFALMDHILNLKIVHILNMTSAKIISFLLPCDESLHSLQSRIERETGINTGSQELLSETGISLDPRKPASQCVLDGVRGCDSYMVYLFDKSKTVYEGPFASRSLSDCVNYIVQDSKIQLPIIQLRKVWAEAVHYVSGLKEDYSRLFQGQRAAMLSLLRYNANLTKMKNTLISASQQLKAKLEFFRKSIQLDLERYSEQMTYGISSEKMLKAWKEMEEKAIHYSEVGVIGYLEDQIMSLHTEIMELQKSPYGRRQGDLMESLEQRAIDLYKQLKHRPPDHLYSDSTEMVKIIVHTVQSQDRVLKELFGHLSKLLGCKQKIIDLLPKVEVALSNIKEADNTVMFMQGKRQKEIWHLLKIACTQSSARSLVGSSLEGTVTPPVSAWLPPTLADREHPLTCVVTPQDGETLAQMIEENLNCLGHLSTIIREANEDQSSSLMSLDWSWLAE",
  "test": "IKKα KinEASE FP kinase activity assay, RANKL-stimulated RAW […] cells",
  "assay_type": "cell-based",
  "data": [
    {"smiles": "O=C1C[C@@H](O[C@@H]2O[C@H](CO)[C@@H](O)[C@H](O)[C@H]2O)CO1", "note": "[kinsenoside, 3-(R)-3-β-D-glucopyranosyloxybutanolide]", "values": [
      {"measurement": "IC50", "result": "~57.6", "unit": "µM"}
    ]}
  ]
}
